Test results published in US20230027066A1 (Urovant Sciences GmbH, priority 2019, published 2023).

How the values were obtained:
[1] = Phase 3 study (75 mg), adverse events; type: in vivo, human
Protocol: (§1) Study assessments of safety included adverse events, physical examinations, vital signs (and weight), and clinical laboratory tests
An adverse event is any untoward medical occurrence in a patient or clinical investigation patient, temporally associated with the use of a medicinal product, whether or not considered related to the medicinal product.
Adverse Events of Clinical Interest for this study included:
Safety analyses were conducted using the SAF and summarized by treatment group as treated. The treatment-emergent period is defined as the period of time from the first dose date of the double blinded Study Treatment through 28 days after the last dose of Study Treatment, or the date of initiation of another investigational agent or surgical intervention or rollover to the extension study, whichever occurs first. Safety was assessed through summaries of adverse events, the frequency of treatment discontinuations due to adverse events, and clinical laboratory evaluations.

[2] = Phase 3 study (75 mg), heart rate and blood pressure changes; type: in vivo, human
Description: as §1
Categorical changes are based on 3 consecutive post-baseline visits and patients are counted in all applicable categories (e.g., if a patient has a 12 unit increase then that patient is counted in both ≥5 and ≥10 unit columns).
Blood Pressure assessments are taken in triplicate and averaged at each visit.

[3] = 3 consecutive post-baseline visits

## O=C(Nc1ccc(C[C@@H]2CC[C@H]([C@H](O)c3ccccc3)N2)cc1)[C@@H]1CCc2nccc(=O)n21 [Vibegron, (6S)-N-[4-[[(2S,5R)−5-[(R)-hydroxy(phenyl)methyl]pyrrolidin−2-yl]methyl]phenyl]−4-oxo−7,8-dihydro−6H-pyrrolo[1,2-a]pyrimidine−6-carboxamide]
[1]; 12-week study
  AE: ALT increase: 1 (0.2) n (%)
  AE: AST increase: 1 (0.2) n (%)
  AE: Atrial fibrillation: 1 (0.2) n (%)
  AE: Bilirubin increased: 0 n (%)
  AE: Blood creatinine increased: 1 (0.2) n (%)
  AE: Blood pressure diastolic increased: 0 n (%)
  AE: Blood pressure increased: 4 (0.7) n (%)
  AE: Cardiac failure congestive: 1 (0.2%) n (%)
  AE: Cerebrovascular accident: 1 (0.2) n (%)
  AE: Chest discomfort: 4 (0.7) n (%)
  AE: Chest pain: 0 n (%)
  AE: Chronic kidney disease: 1 (0.2) n (%)
  AE: Constipation: 9 (1.7) n (%)
  AE: Cystitis: 1 (0.2) n (%)
  AE: Diarrhea: 12 (2.2) n (%)
  AE: Dizziness: 5 (0.9) n (%)
  AE: Drug hypersensitivity: 2 (0.4) n (%)
  AE: Dry mouth: 9 (1.7) n (%)
  AE: Dysuria: 0 n (%)
  AE: Escherichia urinary-tract infection: 0 n (%)
  AE: Fatigue: 2 (0.4) n (%)
  AE: Glomerular filtration rate decreased: 1 (0.2) n (%)
  AE: Headache: 22 (4.0) n (%)
  AE: Hepatic enzyme increased: 0 n (%)
  AE: Hot flush: 4 (0.7) n (%)
  AE: Hyperglycemia: 3 (0.6) n (%)
  AE: Hypertension: 9 (1.7) n (%)
  AE: Hypotension: 1 (0.2) n (%)
  AE: Nasopharyngitis: 15 (2.8) n (%)
  AE: Nausea: 12 (2.2) n (%)
  AE: Pollakiuria: 0 n (%)
  AE: Positional vertigo: 0 n (%)
  AE: Residual urine volume increased: 4 (0.7) n (%)
  AE: Somnolence: 2 (0.4) n (%)
  AE: Syncope: 0 n (%)
  AE: Tachycardia: 0 n (%)
  AE: Transaminases increased: 1 (0.2) n (%)
  AE: Type 2 diabetes mellitus: 2 (0.4) n (%)
  AE: Urinary retention: 3 (0.6) n (%)
  AE: Urinary tract infection: 27 (5.0) n (%)
  AE: Vertigo: 1 (0.2) n (%)
[1]; patients ≥75 years
  AE: Back pain: 2.7%
  AE: Diarrhea: 4.0%
  AE: Dyspnea: 4.0%
  AE: Nausea: 2.7%
  AE: Rash: 2.7%
  AE: Somnolence: 2.7%
  AE: Upper respiratory tract infection: 4.0%
  AE: Urinary retention: 2.7%
  AE: Urinary tract infection: 8.0%
  Overall AE rate: 49.3%
[1]; safety population
  Any AE of clinical interest, %: (6.6%)
  Patients with at least one treatment emergent serious AEs, %: (1.5) %
  SAEs considered treatment-related by the investigator, %: (0.4) %
  SAEs: Hospitalization, %: (1.3) %
  SAEs: other serious criteria, %: (0.4) %
[1]; safety population, 12-week study
  Patients with at least one treatment emergent adverse events, %: (38.7) %
[1]; vibegron 75 mg or tolterodine ER 4 mg once daily, 12 weeks
  Patients with at least one Serious AE: 1.5%
[2]; [3]
  Diastolic BP categorical change from baseline ≥5 mm Hg, patients: 7.0%
  Diastolic BP categorical change from baseline ≥10 mm Hg, patients: 1.3%
  Diastolic BP categorical change from baseline ≥15 mm Hg, patients: 0.2%
  Heart Rate categorical change from baseline ≥5 bpm, patients: 8.6%
  Heart Rate categorical change from baseline ≥10 bpm, patients: 1.8%
  Heart Rate categorical change from baseline ≥15 bpm, patients: 0.4%
  Systolic BP categorical change from baseline ≥5 mm Hg, patients: 11.2%
  Systolic BP categorical change from baseline ≥10 mm Hg, patients: 4.2%
  Systolic BP categorical change from baseline ≥15 mm Hg, patients: 1.3%
[2]; Hypertensive at baseline
  Diastolic BP, 12-week change (95% CI): −3.2 (−6.3, −0.1) mm Hg
  Heart Rate, 12-week change: +2.2 beats/minute
  Systolic BP, 12-week change (95% CI): −9.1 (−13.8, −4.4) mm Hg
[2]; Normotensive at baseline
  Diastolic BP, 12-week change (95% CI): +0.5 (−0.2, +1.1) mm Hg
  Heart Rate, 12-week change: +0.4 beats/minute
  Systolic BP, 12-week change (95% CI): +1.0(0, +2.0) mm Hg
